Assays:
[1] = Selectivity ratio towards Alpha-1 adrenergic receptor to human 5-hydroxytryptamine 1A receptor
[2] = target: T1, 5-hydroxytryptamine receptor 1A (Homo sapiens, UniProt P08908); test: Binding affinity at human 5-hydroxytryptamine 1A receptor by inhibition of [3H]8-OH-DPAT binding in Chinese hamster ovary cell line; assay type: cell-based
T1 sequence (P08908 whole entry): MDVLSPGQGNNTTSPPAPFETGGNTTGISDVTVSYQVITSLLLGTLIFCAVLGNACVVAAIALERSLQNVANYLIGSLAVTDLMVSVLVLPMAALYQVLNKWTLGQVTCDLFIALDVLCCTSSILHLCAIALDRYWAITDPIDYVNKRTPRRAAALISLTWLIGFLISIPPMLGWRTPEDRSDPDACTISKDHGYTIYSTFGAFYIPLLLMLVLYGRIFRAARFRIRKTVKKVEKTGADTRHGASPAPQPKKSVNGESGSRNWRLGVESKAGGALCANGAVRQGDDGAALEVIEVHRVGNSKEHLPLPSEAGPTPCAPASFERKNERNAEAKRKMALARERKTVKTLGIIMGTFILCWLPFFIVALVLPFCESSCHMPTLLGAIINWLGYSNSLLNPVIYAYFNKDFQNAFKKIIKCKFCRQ

[3] = target: T2, Adrenergic receptor alpha-1 (Rattus norvegicus, UniProt P15823+P23944+P43140); test: Binding affinity at Alpha-1 adrenergic receptor by inhibition of [3H]-prazosin binding to rat cortex
T2 sequence (P15823 whole entry): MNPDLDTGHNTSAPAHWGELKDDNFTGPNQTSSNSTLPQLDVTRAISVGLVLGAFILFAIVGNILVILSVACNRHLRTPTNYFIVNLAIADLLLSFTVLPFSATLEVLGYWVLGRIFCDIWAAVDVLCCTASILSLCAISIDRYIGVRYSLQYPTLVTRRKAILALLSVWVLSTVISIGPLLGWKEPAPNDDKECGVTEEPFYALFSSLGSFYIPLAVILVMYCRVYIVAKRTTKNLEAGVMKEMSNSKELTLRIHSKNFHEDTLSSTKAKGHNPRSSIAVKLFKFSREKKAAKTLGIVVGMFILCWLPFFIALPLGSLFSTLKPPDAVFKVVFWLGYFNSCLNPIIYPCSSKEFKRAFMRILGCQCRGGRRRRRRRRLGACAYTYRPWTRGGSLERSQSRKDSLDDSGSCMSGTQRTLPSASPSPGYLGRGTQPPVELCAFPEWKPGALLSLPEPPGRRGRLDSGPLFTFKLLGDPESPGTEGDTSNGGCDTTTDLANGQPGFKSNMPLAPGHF
T2 sequence (P23944 whole entry): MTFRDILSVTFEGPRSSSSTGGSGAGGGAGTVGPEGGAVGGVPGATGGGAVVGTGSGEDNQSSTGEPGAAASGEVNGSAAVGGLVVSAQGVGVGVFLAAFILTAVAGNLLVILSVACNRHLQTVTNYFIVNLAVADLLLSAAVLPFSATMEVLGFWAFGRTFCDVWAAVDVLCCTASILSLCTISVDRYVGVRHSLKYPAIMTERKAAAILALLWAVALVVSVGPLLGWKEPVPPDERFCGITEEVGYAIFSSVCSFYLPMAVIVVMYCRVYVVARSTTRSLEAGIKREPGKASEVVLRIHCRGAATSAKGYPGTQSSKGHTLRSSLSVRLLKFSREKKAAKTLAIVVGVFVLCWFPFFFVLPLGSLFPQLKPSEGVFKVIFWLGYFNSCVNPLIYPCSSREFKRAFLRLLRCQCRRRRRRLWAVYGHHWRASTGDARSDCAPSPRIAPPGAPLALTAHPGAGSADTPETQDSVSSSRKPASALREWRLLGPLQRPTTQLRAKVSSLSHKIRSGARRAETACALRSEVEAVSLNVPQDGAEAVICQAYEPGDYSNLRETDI
T2 sequence (P43140 whole entry): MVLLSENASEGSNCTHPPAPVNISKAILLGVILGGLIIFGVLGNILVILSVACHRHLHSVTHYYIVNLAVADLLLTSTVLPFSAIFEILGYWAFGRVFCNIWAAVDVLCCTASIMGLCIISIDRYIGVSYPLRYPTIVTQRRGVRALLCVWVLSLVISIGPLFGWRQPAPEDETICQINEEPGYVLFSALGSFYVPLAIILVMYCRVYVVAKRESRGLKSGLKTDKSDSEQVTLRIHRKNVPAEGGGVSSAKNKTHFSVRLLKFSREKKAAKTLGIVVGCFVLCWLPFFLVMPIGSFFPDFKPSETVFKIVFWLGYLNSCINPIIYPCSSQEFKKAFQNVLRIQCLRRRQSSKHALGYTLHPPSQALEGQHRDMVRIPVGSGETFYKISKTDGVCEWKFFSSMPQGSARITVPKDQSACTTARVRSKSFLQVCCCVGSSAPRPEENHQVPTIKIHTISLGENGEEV

[4] = target: T3, 5-hydroxytryptamine receptor 1A (Rattus norvegicus) (UniProt P19327); test: Antagonistic activity at postsynaptic 5-hydroxytryptamine 1A receptor was measured by its ability to inhibit hypothermia elicited by s.c. administration of 8-OH-DPAT in rat;ranges from (0.72-2.87); assay type: functional, organism-based
T3 sequence (whole entry): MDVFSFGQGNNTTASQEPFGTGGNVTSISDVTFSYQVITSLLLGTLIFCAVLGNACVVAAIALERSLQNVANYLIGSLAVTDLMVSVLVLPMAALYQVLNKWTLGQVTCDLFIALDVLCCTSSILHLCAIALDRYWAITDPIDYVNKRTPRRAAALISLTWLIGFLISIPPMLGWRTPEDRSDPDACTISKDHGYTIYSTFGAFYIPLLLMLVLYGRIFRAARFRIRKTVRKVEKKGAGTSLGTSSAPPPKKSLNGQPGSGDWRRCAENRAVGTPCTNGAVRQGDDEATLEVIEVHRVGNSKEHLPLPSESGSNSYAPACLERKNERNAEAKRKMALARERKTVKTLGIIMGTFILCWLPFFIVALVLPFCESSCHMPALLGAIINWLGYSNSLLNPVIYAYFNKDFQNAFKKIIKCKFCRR

[5] = In vitro oral metabolic bioavailability after incubation with hepatic microsomes; assay type: ADME, Liver; settings: read-out: MF
[6] = target: T3, 5-hydroxytryptamine receptor 1A (Rattus norvegicus); test: Antagonistic activity at postsynaptic 5-hydroxytryptamine 1A receptor was measured by its ability to inhibit hypothermia elicited by s.c. administration of 8-OH-DPAT in rat;ranges from (0.60-1.60); assay type: functional, organism-based
[7] = target: T3, 5-hydroxytryptamine receptor 1A (Rattus norvegicus); test: Antagonistic activity at postsynaptic 5-hydroxytryptamine 1A receptor was measured by its ability to inhibit hypothermia elicited by s.c. administration of 8-OH-DPAT in rat;ranges from (0.80-5.80); assay type: functional, organism-based
[8] = target: T3, 5-hydroxytryptamine receptor 1A (Rattus norvegicus); test: Antagonistic activity at postsynaptic 5-hydroxytryptamine 1A receptor was measured by its ability to inhibit hypothermia elicited by s.c. administration of 8-OH-DPAT in rat;ranges from (1.50-16.5); assay type: functional, organism-based
[9] = target: T3, 5-hydroxytryptamine receptor 1A (Rattus norvegicus); test: Antagonistic activity at postsynaptic 5-hydroxytryptamine 1A receptor was measured by its ability to inhibit hypothermia elicited by s.c. administration of 8-OH-DPAT in rat;ranges from (0.10-6.20); assay type: functional, organism-based
[10] = target: T3, 5-hydroxytryptamine receptor 1A (Rattus norvegicus); test: Antagonistic activity at postsynaptic 5-hydroxytryptamine 1A receptor was measured by its ability to inhibit hypothermia elicited by s.c. administration of 8-OH-DPAT in rat;ranges from (0.40-2.70); assay type: functional, organism-based
[11] = target: T3, 5-hydroxytryptamine receptor 1A (Rattus norvegicus); test: Antagonistic activity at postsynaptic 5-hydroxytryptamine 1A receptor was measured by its ability to inhibit hypothermia elicited by s.c. administration of 8-OH-DPAT in rat;ranges from (0.37-4.27); assay type: functional, organism-based

Row | SMILES | Ratio [1] | Ki [2] [nM] | Log Ki [3] | Fh [5] [%] | also measured
1 | O[C@@H]1c2ccc(F)cc2C[C@H]1N1CCN(c2cc(Cl)cc3c2OCCO3)CC1 (relative stereo) | 645 | 1.32 | -6.07 | – | –
2 | c1ccc2c(c1)CC(N1CCN(c3cccc4c3OCCO4)CC1)C2 | 158 | 0.794 | -6.9 | 4 | ID50 [4]: 1.44 mg/kg
3 | O[C@@H]1c2cc3c(cc2C[C@H]1N1CCC(c2cccc4c2OCCO4)CC1)OCO3 (relative stereo) | 56 | 0.525 | -7.53 | 8 | ID50 [6]: 1 mg/kg
4 | O[C@@H]1c2ccc(F)cc2C[C@H]1N1CCC(c2cccc3c2OCCO3)CC1 (relative stereo) | 148 | 0.437 | -7.19 | 7 | –
5 | O[C@@H]1c2ccc(F)cc2C[C@H]1N1CCN(c2cccc3c2OCCO3)CC1 (racemic) | – | 1.26 | -6.15 | 65 | –
6 | OCC1COc2c(cc(Cl)cc2N2CCN([C@@H]3Cc4cc(F)ccc4[C@H]3O)CC2)O1 (relative stereo) | 64 | 10.5 | -6.17 | – | –
7 | O[C@@H]1c2ccc(F)cc2C[C@H]1N1CCC(c2cccc3c2OCC3)CC1 (relative stereo) | 30 | 1.51 | -7.34 | – | –
8 | O[C@H]1c2ccc(F)cc2C[C@H]1N1CCC(c2cccc3c2OCCO3)CC1 (relative stereo) | – | 26.9 | – | – | –
9 | Cc1ccc2c(c1)C[C@@H](N1CCC(c3cccc4c3OCCO4)CC1)[C@@H]2O (relative stereo) | 14.5 | 1.17 | -7.77 | – | –
10 | COc1cc2c(cc1OC)[C@@H](O)[C@H](N1CCC(c3cccc4c3OCCO4)CC1)C2 (relative stereo) | 1.5 | 79.4 | -6.9 | – | –
11 | O[C@@H]1c2cc(F)ccc2C[C@H]1N1CCC(c2cccc3c2OCCO3)CC1 (relative stereo) | 102 | 0.776 | -7.1 | 8 | ID50 [7]: 2.1 mg/kg
12 | O[C@H]1c2ccc(F)cc2C[C@H]1N1CCC(O)(c2cccc3c2OCCO3)CC1 (relative stereo) | – | > 1000 | – | – | –
13 | COc1ccc2c(c1)C[C@@H](N1CCN(c3cccc4c3OCCO4)CC1)[C@@H]2O (stereo in doubt; (-)) | – | 1.02 | – | – | –
14 | O[C@@H]1c2ccc(F)cc2C[C@H]1N1CCN(c2cccc3c2OCCO3)CC1 (stereo in doubt; (-)) | – | 2.04 | – | – | –
15 | O[C@@H]1c2cc(F)c(F)cc2C[C@H]1N1CCC(c2cccc3c2OCCO3)CC1 (relative stereo) | 38 | 2.19 | -7.08 | 5 | ID50 [8]: 5 mg/kg
16 | COc1ccc2c(c1)C[C@@H](N1CCN(c3cccc4c3OCCO4)CC1)[C@H]2O (relative stereo) | – | 23.4 | – | – | –

Row | SMILES | Ratio [1] | Ki [2] [nM] | Log Ki [3] | Fh [5] [%] | also measured
17 | O=[N+]([O-])c1ccc2c(c1)[C@@H](O)[C@H](N1CCN(c3cccc4c3OCCO4)CC1)C2 (relative stereo) | 1260 | 0.741 | -6.03 | 71 | ID50 [9]: 0.9 mg/kg
18 | O[C@@H]1c2ccc(F)cc2C[C@H]1N1CCN(c2cccc3c2OCCO3)CC1 (stereo in doubt; (+)) | – | 0.631 | – | – | –
19 | O[C@@H]1c2ccc(F)cc2C[C@H]1N1CC=C(c2cccc3c2SCCC3)CC1 (relative stereo) | – | 11.7 | – | – | –
20 | COc1ccc2c(c1)C[C@@H](N1CCN(c3cccc4c3OCCO4)CC1)[C@@H]2O (racemic) | – | 1.26 | -6.55 | 80 | –
21 | O[C@H]1c2ccc(F)cc2C[C@H]1N1CCN(c2cccc3c2OCCC3)CC1 (relative stereo) | – | 316 | – | – | –
22 | O[C@@H]1c2cc(F)ccc2C[C@H]1N1CCN(c2cccc3c2OCCO3)CC1 (relative stereo) | 561 | 1.32 | -6.13 | 46 | ID50 [10]: 1 mg/kg
23 | O[C@@H]1c2ccc(F)cc2C[C@H]1N1CCC(O)(c2cccc3c2OCCO3)CC1 (relative stereo) | < 1 | > 1000 | -6.31 | – | –
24 | Cc1ccc2c(c1)[C@@H](O)[C@H](N1CCC(c3cccc4c3OCCO4)CC1)C2 (relative stereo) | 66 | 0.55 | -7.44 | – | –
25 | O[C@H]1c2ccccc2C[C@H]1N1CC=C(c2cccc3c2OCCO3)CC1 (relative stereo) | – | 22.9 | – | – | –
26 | O[C@@H]1c2ccc(F)cc2C[C@H]1N1CCC(c2cccc3c2OCCC3)CC1 (relative stereo) | 76 | 0.302 | -7.64 | – | –
27 | O[C@@H]1c2ccc(F)cc2C[C@H]1N1CCC(c2cc(F)cc3c2OCCC3)CC1 (relative stereo) | 11 | 4.9 | -7.26 | – | –
28 | O[C@@H]1c2ccc(F)cc2C[C@H]1N1CCN(c2cccc3c2OCCC3)CC1 (relative stereo) | 166 | 1.29 | -6.67 | – | –
29 | COc1ccc2c(c1)C[C@@H](N1CCN(c3cccc4c3OCCO4)CC1)[C@@H]2O (stereo in doubt; (+)) | – | 6.61 | – | – | –
30 | COc1ccc2c(c1)[C@@H](O)[C@H](N1CCN(c3cccc4c3OCCO4)CC1)C2 (relative stereo) | 603 | 0.447 | -6.57 | 62 | ID50 [11]: 1.25 mg/kg
31 | COc1ccc2c(c1)[C@H](O)[C@H](N1CCN(c3cccc4c3OCCO4)CC1)C2 (relative stereo) | – | 17.4 | – | – | –

— ChEMBL document CHEMBL1135394, “Improvement in the selectivity and metabolic stability of the serotonin 5-HT(1A) ligand, S 15535: a series of cis- and trans-2-(arylcycloalkylamine) 1-indanols” (J Med Chem, 2002)
